In ChEMBL document CHEMBL4177722, “Small molecule inhibitors of anthrax edema factor” (Bioorg Med Chem Lett, 2018):

What was measured:
[1] = target: T1, Serine/threonine-protein kinase Chk1 (Homo sapiens) (UniProt O14757); experiment: Inhibition of human CHK1 at 10 uM by ADP-Glo kinase assay
T1 sequence (whole entry): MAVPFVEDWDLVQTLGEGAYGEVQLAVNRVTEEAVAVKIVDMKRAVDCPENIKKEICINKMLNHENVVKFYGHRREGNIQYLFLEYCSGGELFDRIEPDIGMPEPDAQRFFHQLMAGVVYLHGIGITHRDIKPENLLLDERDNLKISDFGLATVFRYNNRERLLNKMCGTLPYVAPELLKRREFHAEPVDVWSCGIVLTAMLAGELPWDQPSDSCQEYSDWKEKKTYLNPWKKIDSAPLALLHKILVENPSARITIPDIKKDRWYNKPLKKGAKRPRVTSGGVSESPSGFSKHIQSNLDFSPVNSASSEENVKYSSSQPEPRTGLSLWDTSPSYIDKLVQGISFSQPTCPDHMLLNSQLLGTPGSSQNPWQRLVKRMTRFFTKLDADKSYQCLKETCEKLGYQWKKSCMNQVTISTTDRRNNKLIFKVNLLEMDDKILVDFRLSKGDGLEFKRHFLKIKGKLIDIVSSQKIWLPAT

[2] = target: Casein kinase II subunit alpha (Homo sapiens) (UniProt P68400); experiment: Inhibition of human CK2a1 at 10 uM by ADP-Glo kinase assay
[3] = target: T2, Aurora kinase A (Homo sapiens) (UniProt O14965); experiment: Inhibition of human Aurora A at 10 uM by ADP-Glo kinase assay
T2 sequence (whole entry): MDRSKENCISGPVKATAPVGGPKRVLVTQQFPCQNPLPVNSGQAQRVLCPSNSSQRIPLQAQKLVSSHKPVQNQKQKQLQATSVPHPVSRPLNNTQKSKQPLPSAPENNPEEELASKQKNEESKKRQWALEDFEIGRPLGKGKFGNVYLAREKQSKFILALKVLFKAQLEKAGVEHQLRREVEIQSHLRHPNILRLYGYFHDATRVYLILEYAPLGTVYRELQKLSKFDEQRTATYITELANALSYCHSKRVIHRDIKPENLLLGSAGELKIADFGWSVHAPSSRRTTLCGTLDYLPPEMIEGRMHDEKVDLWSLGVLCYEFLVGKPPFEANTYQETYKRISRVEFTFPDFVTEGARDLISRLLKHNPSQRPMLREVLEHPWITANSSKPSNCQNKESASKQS

[4] = target: Serine/threonine-protein kinase PAK 1 (Homo sapiens) (UniProt Q13153); experiment: Inhibition of human PAK1 at 10 uM by ADP-Glo kinase assay
[5] = Cytotoxicity against mouse RAW264.7 cells assessed a reduction in cell viability incubated for 24 hrs in presence of 10% FBS by MTT assay; assay type: cell-based; settings: RAW264.7 cells
[6] = system: RAW264.7; experiment: Cytotoxicity against mouse RAW264.7 cells assessed a reduction in cell viability incubated for 24 hrs in absence of 10% FBS by MTT assay; assay type: cell-based; settings: raw264.7, 24 h
[7] = target: Death-associated protein kinase 1 (Homo sapiens) (UniProt P53355); experiment: Inhibition of human DAPK1 at 10 uM by ADP-Glo kinase assay
[8] = Drug metabolism in 0.1 M sodium tetraborate (Na2B4O7, pH 10.0) assessed as fluoro-sulphonyl group hydrolysis incubated for 24 hrs by LC-MS method; assay type: physicochemical; settings: pH 10, 24 h
[9] = Stability in C57BL/6 mouse plasma assessed as half life at 10 uM by LC-MS method; assay type: ADME, cell-free, C57B/6
[10] = Chemical stability in simulated gastric intestinal fluid at pH 1.7 assessed as parent compound remaining incubated for 24 hrs by LC-MS method; assay type: ADME, physicochemical; settings: simulated gi fluid, pH 1.7, 24 h
[11] = Chemical stability in 0.1 M K2PO4 at pH 7.4 assessed as parent compound remaining incubated for 24 hrs by LC-MS method; assay type: physicochemical; settings: buffer, pH 7.4, 24 h
[12] = Chemical stability in 0.1 N HCl at pH 1.2 assessed as parent compound remaining incubated for 24 hrs by LC-MS method; assay type: physicochemical; settings: buffer, pH 1.2, 24 h
[13] = Chemical stability in 0.1 M sodium tetraborate (Na2B4O7, pH 10.0) assessed as parent compound remaining incubated for 24 hrs by LC-MS method; assay type: physicochemical; settings: 0.1 M sodium tetraborate buffer, read-out: Stability
[14] = Stability in C57BL/6 mouse plasma assessed as assessed as parent compound remaining at 10 uM by LC-MS method; assay type: ADME, cell-free, C57B/6; settings: read-out: Stability

Chain of Death-associated protein kinase 1 (Homo sapiens) (P53355 whole entry, looked up): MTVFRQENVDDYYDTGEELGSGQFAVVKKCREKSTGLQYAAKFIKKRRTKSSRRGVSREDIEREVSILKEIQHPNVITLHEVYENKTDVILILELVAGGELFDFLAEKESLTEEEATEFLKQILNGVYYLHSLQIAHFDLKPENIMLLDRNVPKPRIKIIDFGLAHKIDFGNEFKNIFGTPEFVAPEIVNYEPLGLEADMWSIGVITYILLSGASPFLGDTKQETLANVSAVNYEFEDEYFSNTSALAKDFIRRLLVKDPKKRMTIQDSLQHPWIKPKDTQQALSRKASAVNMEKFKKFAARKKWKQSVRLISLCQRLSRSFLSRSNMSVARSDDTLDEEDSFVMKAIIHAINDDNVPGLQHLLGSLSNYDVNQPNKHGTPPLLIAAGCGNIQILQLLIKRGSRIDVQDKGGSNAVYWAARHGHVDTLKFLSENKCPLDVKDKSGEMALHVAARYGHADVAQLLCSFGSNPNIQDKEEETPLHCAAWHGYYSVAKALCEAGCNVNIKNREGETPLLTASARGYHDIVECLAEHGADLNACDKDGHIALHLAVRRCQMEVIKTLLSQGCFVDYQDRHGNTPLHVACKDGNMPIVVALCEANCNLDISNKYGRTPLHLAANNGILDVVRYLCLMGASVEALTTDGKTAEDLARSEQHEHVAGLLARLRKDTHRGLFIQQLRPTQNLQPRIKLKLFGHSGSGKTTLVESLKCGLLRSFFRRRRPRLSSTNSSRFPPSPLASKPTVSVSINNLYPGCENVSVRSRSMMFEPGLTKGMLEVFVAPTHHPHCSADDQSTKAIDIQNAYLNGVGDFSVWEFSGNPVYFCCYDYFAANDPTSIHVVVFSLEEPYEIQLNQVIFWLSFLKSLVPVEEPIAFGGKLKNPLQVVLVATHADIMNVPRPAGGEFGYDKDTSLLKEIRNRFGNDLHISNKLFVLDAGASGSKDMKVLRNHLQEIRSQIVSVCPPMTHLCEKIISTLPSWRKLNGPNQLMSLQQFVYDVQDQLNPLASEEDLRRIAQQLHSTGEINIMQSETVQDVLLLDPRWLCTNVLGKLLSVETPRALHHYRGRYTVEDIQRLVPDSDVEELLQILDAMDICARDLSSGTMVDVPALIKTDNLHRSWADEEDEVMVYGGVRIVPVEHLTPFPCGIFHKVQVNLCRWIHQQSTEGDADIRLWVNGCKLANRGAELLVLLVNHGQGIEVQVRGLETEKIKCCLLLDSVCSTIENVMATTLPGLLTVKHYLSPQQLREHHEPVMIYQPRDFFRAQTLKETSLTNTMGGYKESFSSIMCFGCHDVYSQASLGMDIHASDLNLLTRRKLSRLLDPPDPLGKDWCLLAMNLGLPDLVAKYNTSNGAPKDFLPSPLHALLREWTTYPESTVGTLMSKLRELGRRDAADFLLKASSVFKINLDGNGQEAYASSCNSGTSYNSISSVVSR
Chain of Casein kinase II subunit alpha (Homo sapiens) (P68400 whole entry, looked up): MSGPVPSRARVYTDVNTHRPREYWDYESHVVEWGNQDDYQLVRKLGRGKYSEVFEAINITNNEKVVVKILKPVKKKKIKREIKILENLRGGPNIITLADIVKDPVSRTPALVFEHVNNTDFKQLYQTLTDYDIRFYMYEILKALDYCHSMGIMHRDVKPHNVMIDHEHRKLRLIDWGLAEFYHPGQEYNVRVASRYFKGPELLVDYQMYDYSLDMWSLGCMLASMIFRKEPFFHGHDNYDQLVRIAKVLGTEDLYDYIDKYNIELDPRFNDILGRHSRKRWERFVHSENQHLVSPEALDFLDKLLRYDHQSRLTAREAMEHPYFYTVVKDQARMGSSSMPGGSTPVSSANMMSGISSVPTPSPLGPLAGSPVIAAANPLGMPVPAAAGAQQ
Chain of Serine/threonine-protein kinase PAK 1 (Homo sapiens) (Q13153 whole entry): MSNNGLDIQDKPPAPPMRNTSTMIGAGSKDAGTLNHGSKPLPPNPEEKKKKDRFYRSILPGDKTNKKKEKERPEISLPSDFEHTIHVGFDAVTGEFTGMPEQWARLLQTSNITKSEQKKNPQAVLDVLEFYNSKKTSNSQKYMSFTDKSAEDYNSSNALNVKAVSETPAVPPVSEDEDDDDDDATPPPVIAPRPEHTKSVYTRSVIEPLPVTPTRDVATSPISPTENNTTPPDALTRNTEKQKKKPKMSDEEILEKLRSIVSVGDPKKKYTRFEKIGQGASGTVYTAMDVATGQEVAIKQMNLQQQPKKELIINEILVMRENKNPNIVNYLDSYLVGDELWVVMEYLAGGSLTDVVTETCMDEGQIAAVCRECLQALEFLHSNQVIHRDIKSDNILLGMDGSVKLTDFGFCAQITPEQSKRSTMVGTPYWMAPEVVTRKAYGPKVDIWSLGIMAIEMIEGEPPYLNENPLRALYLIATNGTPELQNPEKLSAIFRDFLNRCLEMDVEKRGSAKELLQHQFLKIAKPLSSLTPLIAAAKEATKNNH

Compound | inhibition [1] | inhibition [2] | inhibition [3] | inhibition [4] | CC50 at 24 h [5] | Activity [6] | inhibition [7] | Drug metabolism [8] | half-life at 10 µM [9] | Stability [10] | Stability [11] | Stability [12] | remaining at 24 h [13] | remaining at 10 µM [14]
Cc1nc(N)c2ccn(C3CCN(C(=O)c4ccc(S(=O)(=O)F)cc4)CC3)c2n1 | 97% | 16% | 47% | 0% | > 100 µM | Non-Toxic | 13% | – | – | – | – | – | – | –
Nc1ncnc2c1ccn2C1CCN(C(=O)c2ccc(S(=O)(=O)F)cc2)CC1 | 18% | 9% | 39% | 0% | > 100 µM | Non-Toxic | 4% | Metabolite_Notdetected | 37.2 min | Stable | Stable | Stable | < 1% | < 5%
